Test results from patent US20080269306A1, “Antidepressant Medicament Comprising Idazoxan and a Selective Serotonin Reuptake Inhibitor” (ALPHA 2 PHARMACEUTICA AB, priority 2004, published 2008).

What was measured:
[1] = test system: dopamine output in the medial prefrontal cortex; test: Microdialysis: dopamine output in the medial prefrontal cortex of freely moving rats; format: in vivo, rat; settings: for effect on dopamine output in the medial prefrontal cortex: citalopram alone, or low dose of Idazoxan added to citalopram; for DOPAMINE Medial Prefrontal Cortex, mean values: n = 5
Experimental: (§1) Adult male BK1:WR (Wistar) rats weighing 230-390 g were used in all experiments. Animals arrived at least five days prior to experimental use and were housed (4 per cage [Makrolon IV]) in the animal facility under standard laboratory conditions with a 12 h light/dark cycle with lights on at 6.00 a.m. All experiments were performed between 8.00 a.m. and 6.00 p.m. Food and water were available ad lib. All experiments were approved by, and conducted in accordance with, the local Animal Ethics Committee (Stockholms Norra och Södra Försöksdjursetiska Kommittéer) (permits no. N216/00, N11/00). The probe implantation and dialysis procedure, as well as the biochemical analyses, were similar to those previously described (Hertel et al 1996, […] et al 1999). Anesthetized male BKI:WR (Wistar) rats (B&K Universal, Sollentuna, Sweden; sodium pentobarbital, 60 mg/kg, intraperitoneal; i.p.) were implanted with dialysis probes in the medial prefrontal cortex (mPFC) [AP: +2.6; ML: -0.6; DV: -5.2], relative to bregma and dural surface (Paxinos and Watson 1998). Dialysis occurred through a semipermeable membrane (AN69 Hospal) with an active surface length of 4 mm. Dialysis experiments were conducted approximately 48 h after surgery in freely moving rats. The dialysis probe was perfused with a physiological perfusion solution (147 mM sodium chloride, 3.0 mM potassium chloride, 1.3 mM calcium chloride, 1.0 mM magnesium chloride, and 1.0 mM sodium phosphate, pH 7.4) at a rate of 2.5 μl/min set by a microinfusion pump (Harvard Apparatus, Holliston, Mass.). On-line quantification of noradrenaline (NA) or dopamine (DA) in the dialysate was accomplished by high pressure liquid chromatography coupled to electrochemical detection. The placement of the probe was later verified in slices stained with neutral red. 2-Way Anova (treatment×time) followed by Neuman-Keuls Post Hoc comparison test.

[2] = test system: noradrenaline output in the medial prefrontal cortex; test: Microdialysis: noradrenaline output in the medial prefrontal cortex of freely moving rats; format: in vivo, rat; settings: for effect on noradrenaline output in the medial prefrontal cortex: citalopram alone, or low dose of Idazoxan added to citalopram; for NORADRENALINE Medial Prefrontal Cortex, mean values: n = 5
Experimental: as §1

[3] = awake freely moving rat, low dose of Idazoxan added to citalopram
[4] = TIME 30 min, after citalopram 5 mg/kg s.c., before saline/idazoxan
[5] = TIME 60 min, after citalopram 5 mg/kg s.c., before saline/idazoxan
[6] = TIME 90 min, after citalopram 5 mg/kg s.c., before saline/idazoxan
[7] = TIME 120 min, citalopram 5 mg/kg s.c., then saline 1 ml/kg or idazoxan 1.5 mg/kg s.c. after the 90 min sample
[8] = TIME 150 min, citalopram 5 mg/kg s.c., then saline 1 ml/kg or idazoxan 1.5 mg/kg s.c. after the 90 min sample
[9] = TIME 180 min, citalopram 5 mg/kg s.c., then saline 1 ml/kg or idazoxan 1.5 mg/kg s.c. after the 90 min sample
[10] = TIME 210 min, citalopram 5 mg/kg s.c., then saline 1 ml/kg or idazoxan 1.5 mg/kg s.c. after the 90 min sample
[11] = TIME 240 min, citalopram 5 mg/kg s.c., then saline 1 ml/kg or idazoxan 1.5 mg/kg s.c. after the 90 min sample
[12] = TIME 270 min, citalopram 5 mg/kg s.c., then saline 1 ml/kg or idazoxan 1.5 mg/kg s.c. after the 90 min sample

How did the “effect on dopamine output in the medial prefrontal cortex” value ([1]; awake freely moving rat) turn out when `c1ccc2c(c1)OCC(C1=NCCN1)O2` (racemic) [Idazoxan, 2-(1,4-benzodioxan-2-yl)-2-imidazoline] was run?
The value was “significant increase”.

And the “duration of the increase in dopamine output” value [1, 3]?
The value was “approximately 2 hours”.

And the “effect on noradrenaline output in the medial prefrontal cortex” value ([2]; awake freely moving rat)?
Its value is “significant increase”.

And the “duration of the increase in noradrenaline output” value [2, 3]?
The value was “approximately 2 hours”.

What does the source list for `CN(C)CCCC1(c2ccc(F)cc2)OCc2cc(C#N)ccc21` (stereo not drawn) [Citalopram + Saline, Citalopram]?
DOPAMINE Medial Prefrontal Cortex, mean values [1, 4]: 129.4 % Baseline; DOPAMINE Medial Prefrontal Cortex, mean values [1, 5]: 104.5 % Baseline; DOPAMINE Medial Prefrontal Cortex, mean values [1, 6]: 109.1 % Baseline; DOPAMINE Medial Prefrontal Cortex, mean values [1, 7]: 127.8 % Baseline; DOPAMINE Medial Prefrontal Cortex, mean values [1, 8]: 110.3 % Baseline; DOPAMINE Medial Prefrontal Cortex, mean values [1, 9]: 97.7 % Baseline; DOPAMINE Medial Prefrontal Cortex, mean values [1, 10]: 88.0 % Baseline; DOPAMINE Medial Prefrontal Cortex, mean values [1, 11]: 104.5 % Baseline; DOPAMINE Medial Prefrontal Cortex, mean values [1, 12]: 94.1 % Baseline; effect on dopamine output in the medial prefrontal cortex ([1]; awake freely moving rat): does not per se affect; NORADRENALINE Medial Prefrontal Cortex, mean values [2, 4]: 127.8 % Baseline; NORADRENALINE Medial Prefrontal Cortex, mean values [2, 5]: 118.8 % Baseline; NORADRENALINE Medial Prefrontal Cortex, mean values [2, 6]: 105.5 % Baseline; NORADRENALINE Medial Prefrontal Cortex, mean values [2, 7]: 114.6 % Baseline; NORADRENALINE Medial Prefrontal Cortex, mean values [2, 8]: 103.2 % Baseline; NORADRENALINE Medial Prefrontal Cortex, mean values [2, 9]: 81.6 % Baseline; NORADRENALINE Medial Prefrontal Cortex, mean values [2, 10]: 88.7 % Baseline; NORADRENALINE Medial Prefrontal Cortex, mean values [2, 11]: 83.7 % Baseline; NORADRENALINE Medial Prefrontal Cortex, mean values [2, 12]: 87.9 % Baseline; effect on noradrenaline output in the medial prefrontal cortex ([2]; awake freely moving rat): does not per se affect
